Target: T1, human CPT1A (Homo sapiens, UniProt P50416)
T1 construct: made in house; host or cells: Saccharomyces cerevisiae (pESC-trp) or cultured mammalian cells (pCDNA3.1); mitochondrial extract
T1 sequence (P50416 1-773): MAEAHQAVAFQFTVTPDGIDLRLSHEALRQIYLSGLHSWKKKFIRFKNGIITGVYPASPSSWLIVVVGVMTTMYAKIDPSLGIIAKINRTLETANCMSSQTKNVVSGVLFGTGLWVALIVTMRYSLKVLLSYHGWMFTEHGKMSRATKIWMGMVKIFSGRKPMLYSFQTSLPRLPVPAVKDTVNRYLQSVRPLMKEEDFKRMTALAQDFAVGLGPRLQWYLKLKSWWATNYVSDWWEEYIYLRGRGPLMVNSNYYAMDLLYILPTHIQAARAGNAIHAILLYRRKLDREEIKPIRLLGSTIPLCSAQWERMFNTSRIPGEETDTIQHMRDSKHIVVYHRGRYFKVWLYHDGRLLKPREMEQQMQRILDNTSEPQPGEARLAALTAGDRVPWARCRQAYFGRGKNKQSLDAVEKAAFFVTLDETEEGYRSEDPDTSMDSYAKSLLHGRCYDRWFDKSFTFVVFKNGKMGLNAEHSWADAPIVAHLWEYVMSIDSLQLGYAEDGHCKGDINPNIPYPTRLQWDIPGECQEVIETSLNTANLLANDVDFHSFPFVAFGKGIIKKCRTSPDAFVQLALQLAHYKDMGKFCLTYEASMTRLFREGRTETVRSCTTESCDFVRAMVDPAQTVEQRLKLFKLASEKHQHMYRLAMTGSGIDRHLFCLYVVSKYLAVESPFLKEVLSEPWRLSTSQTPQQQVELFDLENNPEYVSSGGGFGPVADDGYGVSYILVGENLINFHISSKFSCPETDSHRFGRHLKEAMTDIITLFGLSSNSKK
Test: Human CPT1A LC/MS assay
Format: biochemical
Conditions: human CPT1A LC/MS assay, dose response format
In short: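 Mitochondrial extracts (1.6 μg protein) expressing human CPT1A, preincubated 10 min with compound in 20% DMSO, then reacted 10 min at room temperature with 20 μM palmitoyl-CoA, 50 μM L-carnitine (pH 7.5). Palmitoyl carnitine was quantified by LC/MS against a myristoyl carnitine standard; 16-point, 2-fold titrations gave dose response.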

Compound | IC50 [µM]
CCCCC#Cc1ccc(C(=O)N[C@H](CC(=O)[O-])C[N+](C)(C)C)o1 [Example S4, (R)-3-(5-(hex-1-ynyl)furan-2-carboxamido)-4-(trimethylammonio)butanoate] | 10 to 100
C[N+](C)(C)C[C@@H](CC(=O)O)NC(=O)c1ccc(CCc2ccccc2)o1 [Example S42, (R)-3-(5-phenethylfuran-2-carboxamido)-4-(trimethylammonio)-butanoate] | ≤ 1
C[N+](C)(C)C[C@@H](CC(=O)O)NS(=O)(=O)c1ccc(-c2ccno2)s1 [Example S22, (R)-3-carboxy-2-(5-(isoxazol-5-yl)thiophene-2-sulfonamido)-N,N,N-trimethylpropan-1-aminium 2,2,2-trifluoroacetate] | 1000 to 2500
C[N+](C)(C)C[C@@H](CC(=O)O)NC(=O)c1ccc(C#Cc2ccccc2)s1 [Example S43, (R)-3-(5-(phenylethynyl)thiophene-2-carboxamido)-4-(trimethylammonio)-butanoate] | ≤ 1
CCCCCc1ccc(CCC2CCC(C(=O)N[C@H](CC(=O)[O-])C[N+](C)(C)C)O2)cc1 (stereo partly drawn) [Example S121, (3R)-3-(5-(4-pentylphenethyl)tetrahydrofuran-2-carboxamido)-4-(trimethylammonio)butanoate] | 1 to 10
C[N+](C)(C)C[C@@H](CC(=O)O)NC(=O)Nc1ccc(C(=O)c2ccccc2)cc1 [Example S16, (R)-2-(3-(4-Benzoylphenyl)ureido)-3-carboxy-N,N,N-trimethylpropan-1-aminium acetate] | 10 to 100
CCCCCc1ccc(CCc2ccc(C(=O)N[C@H](CC(=O)O)C[N+](C)(C)C)o2)cc1 [Example S123, (R)-3-carboxy-N,N,N-trimethyl-2-(5-(4-pentylphenethyl)furan-2-carboxamido)propan-1-aminium 2,2,2-trifluoroacetate] | ≤ 1
CCCCCc1ccc(CCc2ccc(C(=O)N[C@H](CC(=O)O)C[N+](C)(C)C)s2)cc1 [Example S102, (R)-3-carboxy-N,N,N-trimethyl-2-(5-(4-pentylphenethyl)thiophene-2-carboxamido)propan-1-aminium 2,2,2-trifluoroacetate] | ≤ 1
CCCCc1ccc(NC(=O)N[C@H](CC(=O)[O-])C[N+](C)(C)C)c(C)c1 [Example S13, (R)-2-(3-(4-Butyl-2-methylphenyl)ureido)-3-carboxy-N,N,N-trimethylpropan-1-aminium] | 1000 to 2500
CCOc1ccc(S(=O)(=O)N[C@H](CC(=O)O)C[N+](C)(C)C)cc1NC(=O)N1CCOCC1 [Example S74, (R)-3-carboxy-2-(4-ethoxy-3-(morpholine-4-carboxamido)phenyl-sulfonamido)-N,N,N-trimethylpropan-1-aminium 2,2,2-trifluoroacetate] | > 2500
CCCCCc1ccc(NC(=O)N[C@H](CC(=O)[O-])C[N+](C)(C)C)cc1 [Example S15, (R)-3-Carboxy-N,N,N-trimethyl-2-(3-(4-pentylphenyl)ureido)propan-1-aminium] | 10 to 100
CCCCCCC(=O)C(=O)N[C@H](CC(=O)O)C[N+](C)(C)C [Example S120, (R)-3-carboxy-N,N,N-trimethyl-2-(2-oxooctanamido)propan-1-aminium 2,2,2-trifluoroacetate] | 1 to 10
C[N+](C)(C)C[C@@H](CC(=O)O)NC(=O)c1ccc(CCc2ccsc2)s1 [Example S98, (R)-3-carboxy-N,N,N-trimethyl-2-(5-(2-(thiophen-3-yl)ethyl)thiophene-2-carboxamido)propan-1-aminium 2,2,2-trifluoroacetate] | ≤ 1
Cn1nc(C(F)(F)F)cc1-c1ccc(S(=O)(=O)N[C@H](CC(=O)O)C[N+](C)(C)C)s1 [Example S72, (R)-3-carboxy-N,N,N-trimethyl-2-(5-(1-methyl-3-(trifluoromethyl)-1H-pyrazol-5-yl)thiophene-2-sulfonamido)propan-1-aminium 2,2,2-trifluoroacetate] | 100 to 1000
CCCCCCCc1ccc(NS(=O)(=O)N[C@H](CC(=O)[O-])C[N+](C)(C)C)cc1 [Example S27, (R)-3-(N-(4-heptylphenyl)sulfamoylamino)-4-(trimethylammonio)-butanoate] | ≤ 1
CCCCCc1ccc(NS(=O)(=O)N[C@H](CC(=O)O)C[N+](C)(C)C)cc1 [Example S91, (R)-3-(N-(4-pentylphenyl)sulfamoylamino)-4-(trimethylammonio)butanoate] | ≤ 1
C[N+](C)(C)C[C@@H](CC(=O)O)NC(=O)Nc1ccc(-c2ccccc2)cc1 [Example S17, (R)-2-(3-Biphenyl-4-ylureido)-3-carboxy-N,N,N-trimethylpropan-1-aminium acetate] | 100 to 1000
CCCCCc1ccc(C#Cc2ccc(C(=O)N[C@H](CC(=O)O)C[N+](C)(C)C)s2)cc1 [Example S96, (R)-3-carboxy-N,N,N-trimethyl-2-(5-((4-pentylphenyl)ethynyl)-thiophene-2-carboxamido)propan-1-aminium 2,2,2-trifluoroacetate] | ≤ 1
C[N+](C)(C)C[C@@H](CC(=O)[O-])NC(=O)c1ccc(CSc2ccc(Cl)cc2)o1 [Example S71, (R)-3-(5-((4-chlorophenylthio)methyl)furan-2-carboxamido)-4-(trimethyl-ammonio)butanoate] | ≤ 1
C[N+](C)(C)C[C@@H](CC(=O)O)NC(=O)Nc1ccc(OCc2ccccc2)cc1 [Example S12, (R)-3-(3-(4-(Benzyloxy)phenyl)ureido)-4-(trimethylammonio)butanoate acetate] | 100 to 1000
CCCCCCCCc1cccc(NS(=O)(=O)N[C@H](CC(=O)[O-])C[N+](C)(C)C)c1 [Example S111, (R)-3-(N-(3-octylphenyl)sulfamoylamino)-4-(trimethylammonio)-butanoate] | ≤ 1
Cc1cc(COc2ccccc2)oc1C(=O)N[C@H](CC(=O)[O-])C[N+](C)(C)C [Example S65, (R)-3-(3-methyl-5-(phenoxymethyl)furan-2-carboxamido)-4-(trimethyl-ammonio)butanoate] | 100 to 1000
C[N+](C)(C)C[C@@H](CC(=O)[O-])NC(=O)c1ccc(Oc2ccccc2)nc1 [Example S50, (R)-3-(6-phenoxynicotinamido)-4-(trimethylammonio)butanoate] | 100 to 1000

Source: US8410150B2, “Inhibitors of carnitine palmitoyltransferase and treating cancer” (University Health Network, priority 2007, dated 2013)
